Numbers after ± are expanded uncertainties.
Conditions: Liquid

CCCCCCCCCC(=O)OCC [ethyl decanoate]
viscosity [mPa·s]
Conditions	293.15 K	313.15 K	333.15 K	353.15 K
101.3 kPa, Falling or rolling sphere viscometry	2.34 ± 0.09	1.59 ± 0.06	1.16 ± 0.04	0.888 ± 0.032
101.3 kPa, Quartz crystal resonator	2.33 ± 0.05	1.59 ± 0.03	1.16 ± 0.02	0.893 ± 0.019
10000 kPa, Quartz crystal resonator	2.59 ± 0.05	1.77 ± 0.04	1.28 ± 0.03	1 ± 0.02
20000 kPa, Falling or rolling sphere viscometry	2.94 ± 0.11	1.96 ± 0.07	1.44 ± 0.05	1.1 ± 0.04
20000 kPa, Quartz crystal resonator	2.91 ± 0.06	1.97 ± 0.04	1.43 ± 0.03	1.1 ± 0.02
30000 kPa, Quartz crystal resonator	3.22 ± 0.07	2.18 ± 0.05	1.59 ± 0.03	1.21 ± 0.03
40000 kPa, Falling or rolling sphere viscometry	3.62 ± 0.13	2.38 ± 0.09	1.74 ± 0.06	1.32 ± 0.05
40000 kPa, Quartz crystal resonator	3.57 ± 0.07	2.39 ± 0.05	1.74 ± 0.04	1.32 ± 0.03
50000 kPa, Quartz crystal resonator	3.95 ± 0.08	2.62 ± 0.06	1.87 ± 0.04	1.45 ± 0.03
60000 kPa, Falling or rolling sphere viscometry	4.4 ± 0.16	2.85 ± 0.1	2.06 ± 0.07	1.56 ± 0.06
60000 kPa, Quartz crystal resonator	4.35 ± 0.09	2.86 ± 0.06	2.07 ± 0.04	1.58 ± 0.03
70000 kPa, Quartz crystal resonator	4.8 ± 0.1	3.14 ± 0.07	2.2 ± 0.05	1.72 ± 0.04
80000 kPa, Falling or rolling sphere viscometry	5.29 ± 0.19	3.37 ± 0.12	2.42 ± 0.09	1.82 ± 0.07
80000 kPa, Quartz crystal resonator	5.23 ± 0.11	3.44 ± 0.07	2.37 ± 0.05	1.84 ± 0.04
90000 kPa, Quartz crystal resonator	5.74 ± 0.12	3.72 ± 0.08	2.59 ± 0.05	1.98 ± 0.04
100000 kPa, Falling or rolling sphere viscometry	6.3 ± 0.23	3.96 ± 0.14	2.81 ± 0.1	2.1 ± 0.08
100000 kPa, Quartz crystal resonator	6.25 ± 0.13	4.04 ± 0.09	2.82 ± 0.06	2.13 ± 0.04
120000 kPa, Falling or rolling sphere viscometry	7.45 ± 0.27	4.62 ± 0.17	3.23 ± 0.12	2.4 ± 0.09
120000 kPa, Quartz crystal resonator	7.46 ± 0.3	4.69 ± 0.19	3.27 ± 0.13	2.42 ± 0.1
140000 kPa, Falling or rolling sphere viscometry	8.78 ± 0.32	5.35 ± 0.19	3.7 ± 0.13	2.73 ± 0.1
140000 kPa, Quartz crystal resonator	8.83 ± 0.36	5.52 ± 0.22	3.72 ± 0.15	2.74 ± 0.11
160000 kPa, Falling or rolling sphere viscometry	10.3 ± 0.37	6.18 ± 0.22	4.22 ± 0.15	3.08 ± 0.11
160000 kPa, Quartz crystal resonator	10.7 ± 0.4	6.27 ± 0.26	4.25 ± 0.17	3.14 ± 0.13
180000 kPa, Falling or rolling sphere viscometry	12.06 ± 0.44	7.11 ± 0.26	4.78 ± 0.17	3.46 ± 0.13
180000 kPa, Quartz crystal resonator	12.4 ± 0.5	7.31 ± 0.3	4.7 ± 0.19	3.53 ± 0.14
200000 kPa, Falling or rolling sphere viscometry	14.1 ± 0.51	8.16 ± 0.3	5.41 ± 0.2	3.88 ± 0.14
200000 kPa, Quartz crystal resonator	14.5 ± 0.6	8.36 ± 0.34	5.36 ± 0.22	3.98 ± 0.16

CCCCCCCCCC(=O)OC [methyl decanoate]
viscosity [mPa·s]
Conditions	293.15 K	313.15 K	333.15 K	353.15 K
101.3 kPa, Falling or rolling sphere viscometry	2.15 ± 0.08	1.46 ± 0.05	1.07 ± 0.04	0.825 ± 0.03
101.3 kPa, Quartz crystal resonator	2.13 ± 0.04	1.5 ± 0.03	1.08 ± 0.02	0.837 ± 0.017
10000 kPa, Quartz crystal resonator	2.36 ± 0.05	1.66 ± 0.04	1.19 ± 0.03	0.927 ± 0.019
20000 kPa, Falling or rolling sphere viscometry	2.66 ± 0.1	1.83 ± 0.07	1.32 ± 0.05	1.01 ± 0.04
20000 kPa, Quartz crystal resonator	2.62 ± 0.05	1.84 ± 0.04	1.3 ± 0.03	1.02 ± 0.02
30000 kPa, Quartz crystal resonator	2.92 ± 0.06	2 ± 0.04	1.43 ± 0.03	1.12 ± 0.02
40000 kPa, Falling or rolling sphere viscometry	3.24 ± 0.12	2.21 ± 0.08	1.58 ± 0.06	1.21 ± 0.04
40000 kPa, Quartz crystal resonator	3.21 ± 0.07	2.2 ± 0.05	1.55 ± 0.03	1.22 ± 0.03
50000 kPa, Quartz crystal resonator	3.53 ± 0.07	2.39 ± 0.05	1.68 ± 0.04	1.31 ± 0.03
60000 kPa, Falling or rolling sphere viscometry	3.91 ± 0.14	2.65 ± 0.1	1.86 ± 0.07	1.42 ± 0.05
60000 kPa, Quartz crystal resonator	3.87 ± 0.08	2.59 ± 0.05	1.81 ± 0.04	1.42 ± 0.03
70000 kPa, Quartz crystal resonator	4.22 ± 0.09	2.82 ± 0.06	1.97 ± 0.04	1.53 ± 0.03
80000 kPa, Falling or rolling sphere viscometry	4.67 ± 0.17	3.12 ± 0.11	2.17 ± 0.08	1.64 ± 0.06
80000 kPa, Quartz crystal resonator	4.61 ± 0.1	3.06 ± 0.06	2.11 ± 0.04	1.63 ± 0.03
90000 kPa, Quartz crystal resonator	5.02 ± 0.11	3.29 ± 0.07	2.26 ± 0.05	1.75 ± 0.04
100000 kPa, Falling or rolling sphere viscometry	5.53 ± 0.2	3.63 ± 0.13	2.5 ± 0.09	1.88 ± 0.07
100000 kPa, Quartz crystal resonator	5.47 ± 0.11	3.56 ± 0.08	2.43 ± 0.05	1.87 ± 0.04
120000 kPa, Falling or rolling sphere viscometry	6.52 ± 0.24	4.21 ± 0.15	2.86 ± 0.1	2.13 ± 0.08
120000 kPa, Quartz crystal resonator	6.47 ± 0.26	4.1 ± 0.17	2.76 ± 0.11	2.13 ± 0.09
140000 kPa, Falling or rolling sphere viscometry	7.66 ± 0.28	4.85 ± 0.18	3.26 ± 0.12	2.41 ± 0.09
140000 kPa, Quartz crystal resonator	7.82 ± 0.32	4.75 ± 0.19	3.19 ± 0.13	2.41 ± 0.1
160000 kPa, Falling or rolling sphere viscometry	8.96 ± 0.32	5.56 ± 0.2	3.7 ± 0.13	2.71 ± 0.1
160000 kPa, Quartz crystal resonator	9.17 ± 0.37	5.43 ± 0.22	3.62 ± 0.15	2.72 ± 0.11
180000 kPa, Falling or rolling sphere viscometry	–	6.35 ± 0.23	4.18 ± 0.15	3.03 ± 0.11
180000 kPa, Quartz crystal resonator	–	6.29 ± 0.25	4.07 ± 0.17	3.05 ± 0.12
200000 kPa, Falling or rolling sphere viscometry	–	7.24 ± 0.26	4.7 ± 0.17	3.38 ± 0.12
200000 kPa, Quartz crystal resonator	–	7.13 ± 0.29	4.54 ± 0.18	3.41 ± 0.14

From the NIST ThermoML archive (doi:10.1021/je500980a)
